This assay concerns the target T1, Human complement C1s enzyme (Homo sapiens, UniProt P09871).
T1 construct: purified from human serum, Complement Technology, Inc; purchased Complement Technology, Inc; host or cells: human serum (plasma-derived native protein)
T1 sequence (P09871 438-688 limits assumed): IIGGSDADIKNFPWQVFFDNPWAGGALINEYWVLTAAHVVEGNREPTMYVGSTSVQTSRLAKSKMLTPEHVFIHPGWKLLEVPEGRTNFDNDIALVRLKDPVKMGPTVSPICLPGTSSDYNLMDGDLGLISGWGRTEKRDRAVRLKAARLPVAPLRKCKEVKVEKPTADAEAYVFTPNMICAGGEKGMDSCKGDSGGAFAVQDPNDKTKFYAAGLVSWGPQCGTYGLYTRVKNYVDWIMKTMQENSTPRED
T1 sequence (P09871 16-437 partner limits assumed): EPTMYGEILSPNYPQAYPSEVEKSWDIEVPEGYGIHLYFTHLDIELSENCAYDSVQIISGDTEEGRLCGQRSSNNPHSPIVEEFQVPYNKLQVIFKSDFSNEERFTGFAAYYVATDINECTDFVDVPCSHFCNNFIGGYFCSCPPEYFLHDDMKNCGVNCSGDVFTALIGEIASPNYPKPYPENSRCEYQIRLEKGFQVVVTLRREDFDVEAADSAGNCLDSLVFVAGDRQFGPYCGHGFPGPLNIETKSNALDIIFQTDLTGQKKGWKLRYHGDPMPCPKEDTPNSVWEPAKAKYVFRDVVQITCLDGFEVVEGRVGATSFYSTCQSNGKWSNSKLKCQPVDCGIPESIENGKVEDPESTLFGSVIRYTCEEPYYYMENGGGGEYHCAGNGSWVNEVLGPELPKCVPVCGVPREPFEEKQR
The experiment in a line: Human C1s enzyme assay. The following applies: human complement C1s enzyme 1.16 nM, substrate Z-L-Lys-SBzl, A405; read-out: IC50 (Stars). The assay is classed as biochemical. Summed up:
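Thioesterase activity followed colorimetrically (DTNB, A405, 30-s reads) using 100 μM Z-L-Lys-SBzl substrate. Enzyme, human serum-derived C1s at 1.16 nM final, was incubated with test compound for 5 min, room temperature, pH 7.5 Tris buffer with 1 M NaCl. Rate-versus-concentration data fitted by nonlinear regression for IC50.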

Structures are written as SMILES.

By IC50 is commonly meant the concentration needed to halve the response being measured. For `O=C(Cn1c(-c2ccccc2)ncc(NCc2ccc3c(c2)C(F)(F)c2ccccc2-3)c1=O)NCc1cc2cnccc2[nH]1` [Compound 112, N-((1H-pyrrolo[3,2-c]pyridin-2-yl)methyl)-2-(5-(((9,9-difluoro-9H-fluoren-2-yl)meth-yl)amino)-6-oxo-2-phenyl-pyrimidin-1(6H)-yl)acetamide], the IC50 is less than 100 nM.
For `O=C(Cn1c(-c2ccccc2)ncc(NCCCc2cc3ccc2CCc2ccc(cc2)CC3)c1=O)NCc1cc2cnccc2[nH]1` [Compound 113, 2-(5-((3-(1,4(1,4)-dibenzenacyclohexaphane-1^2-yl)propyl)amino)-6-oxo-2-phenylpyrimidin-1(6H)-yl)-N-((1H-pyrrolo[3,2-c]pyridine-2-yl)methyl)acetamide] the value was less than 100 nM; for `CS(=O)(=NC#N)c1ccc(-c2ncc(NCCCc3ccccc3)c(=O)n2CC(=O)NCc2cc3cnccc3[nH]2)cc1` (stereo not shown) [Compound 114, N-((1H-pyrrolo[3,2-c]pyridine-2-yl)methyl)-2-(2-(4-(N-cyano-S-methylsulfonimidoyl)phenyl)-6-oxo-5-((3-phenylpropyl)amino)pyrimidin-1(6H)-yl)acetamide], less than 100 nM; for `COc1cc(C(=O)Nc2cnc(-c3ccccc3)n(CC(=O)NCc3cc4cnccc4[nH]3)c2=O)ccc1-c1ccccc1` [Compound 115, N-(1-(2-(((1H-pyrrolo[3,2-c]pyridin-2-yl)methyl)amino)-2-oxoethyl)-6-oxo-2-phenyl-1,6-dihydropyrimidin-5-yl)-2-methoxy-[1,1′-biphenyl]-4-carboxamide], less than 100 nM.
As for `O=C(Cn1c(-c2ccccc2)ncc(NCCCc2ccc(C3(F)COC3)cc2)c1=O)NCc1cc2cnccc2[nH]1` [Compound 116, N-((1H-pyrrolo[3,2-c]pyridine-2-yl)methyl)-2-(5-((3-(4-(3-fluorooxetan-3-yl)phenyl)propyl)amino)-6-oxo-2-phenylpyrimidin-1(6H)-yl)acetamide], the IC50 was less than 100 nM.
On to `O=C(Cn1c(-c2cccc(F)c2)ncc(NCc2ccc3oc4ccccc4c3c2)c1=O)NCc1cc2cnccc2[nH]1` [Compound 117, N-((1H-pyrrolo[3,2-c]pyridin-2-yl)methyl)-2-(5-((dibenzo [b,d]furan-2-ylmethyl)amino)-2-(3-fluorophenyl)-6-oxopyr-imidin-1(6H)-yl)acetamide], for which the IC50 was less than 100 nM.
In the case of `O=C(Cn1c(-c2ccc(Cl)cc2)ncc(NCc2ccc3oc4ccccc4c3c2)c1=O)NCc1cc2cnccc2[nH]1` [Compound 118, N-((1H-pyrrolo[3,2-c]pyridin-2-yl)methyl)-2-(2-(4-chloro-phenyl)-5-((dibenzo[b,d]furan-2-ylmethyl)amino)-6-oxopyr-imidin-1(6H)-yl)acetamide], the IC50 was less than 100 nM.
As to `COc1ccc(-c2ncc(NCc3ccc4oc5ccccc5c4c3)c(=O)n2CC(=O)NCc2cc3cnccc3[nH]2)cc1` [Compound 119, N-((1H-pyrrolo[3,2-c]pyridin-2-yl)methyl)-2-(5-((dibenzo [b,d]furan-2-ylmethyl)amino)-2-(4-methoxyphenyl)-6-oxo-pyrimidin-1(6H)-yl)acetamide], the IC50 was less than 100 nM.
As for `O=C(Cn1c(-c2ccccc2F)ncc(NCc2ccc3oc4ccccc4c3c2)c1=O)NCc1cc2cnccc2[nH]1` [Compound 120, N-((1H-pyrrolo[3,2-c]pyridin-2-yl)methyl)-2-(5-((dibenzo [b,d]furan-2-ylmethyl)amino)-2-(2-fluorophenyl)-6-oxopyr-imidin-1(6H)-yl)acetamide], the IC50 was less than 100 nM.
As for `O=C(Cn1c(-c2ccc(F)cc2)ncc(NCc2ccc3oc4ccccc4c3c2)c1=O)NCc1cc2cnccc2[nH]1` [Compound 123, N-((1H-pyrrolo[3,2-c]pyridine-2-yl)methyl)-2-(5-((dibenzo[b,d]furan-2-ylmethyl)amino)-2-(4-fluorophenyl)-6-oxopyrimidin-1(6H)-yl)acetamide], the IC50 is less than 100 nM.
For `O=C(Cn1c(-c2ccc(OC3CS(=O)(=O)C3)cc2)ncc(NCCCc2ccccc2)c1=O)NCc1cc2cnccc2[nH]1` [Compound 124, N-((1H-pyrrolo[3,2-c]pyridine-2-yl)methyl)-2-(2-(4-((1,1-dioxidothietan-3-yl)oxy)phenyl)-6-oxo-5-((3-phenylpropyl)amino)pyrimidin-1(6H)-yl)acetamide] the value was less than 100 nM; for `O=C(Cn1c(-c2ccc(O[C@@H]3CO[C@H]4[C@@H]3OC[C@H]4O)cc2)ncc(NCCCc2ccccc2)c1=O)NCc1cc2cnccc2[nH]1` [Compound 125, N-((1H-pyrrolo[3,2-c]pyridine-2-yl)methyl)-2-(2-(4-(((3R,3aR,6R,6aR)-6-hydroxyhexahydrofuro[3,2-b]furan-3-yl)oxy)phenyl)-6-oxo-5-((3-phenylpropyl)amino)pyrimidin-1(6H)-yl)acetamide], less than 100 nM; for `C[C@@H](Nc1cnc(-c2ccccc2)n(CC(=O)NCc2cc3cnccc3[nH]2)c1=O)c1ccc2oc3ccccc3c2c1` [Compound 126, (R)-N-((1H-pyrrolo[3,2-c]pyr-idin-2-yl)methyl)-2-(5-((1-(dibenzo[b,d]furan-2-yl)ethyl)-amino)-6-oxo-2-phenylpyrimi-din-1(6H)-yl)acetamide], less than 100 nM.
Regarding `C[C@H](Nc1cnc(-c2ccccc2)n(CC(=O)NCc2cc3cnccc3[nH]2)c1=O)c1ccc2oc3ccccc3c2c1` [Compound 127, (S)—N-((1H-pyrrolo[3,2-c]pyridine-2-yl)methyl)-2-(5-((1-(dibenzo[b,d]furan-2-yl)ethyl)amino)-6-oxo-2-phenylpyrimidin-1(6H)-yl)acetamide], the IC50 was less than 100 nM.
Consider `COc1c(NC(=O)c2ccc(-c3ccccc3)s2)ccc(-c2ccccc2)c1CC(=O)NCc1cc2cnccc2[nH]1` [Compound 129, N-(2-(2-(((1H-Pyrrolo[3,2-c]pyridine-2-yl)methyl)amino)-2-oxoethyl)-3-methoxy-[1,1′-biphenyl]-4-yl)-5-phenylthiophene-2-carboxamide], for which the IC50 was greater than 1000 nM.
With `O=C(Cn1c(-c2ccc(OC3COC3)cc2)ncc(NCc2ccc3oc4ccccc4c3c2)c1=O)NCc1cc2cnccc2[nH]1` [Compound 130, N-((1H-pyrrolo[3,2-c]pyridine-2-yl)methyl)-2-(5-((dibenzo[b,d]furan-2-ylmethyl)amino)-2-(4-(oxetan-3-yloxy)phenyl)-6-oxopyrimidin-1(6H)-yl)acetamide], the IC50 was less than 100 nM.
For `CS(=O)(=O)c1ccc(-c2ncc(NCc3ccc4oc5ccccc5c4c3)c(=O)n2CC(=O)NCc2cc3cnccc3[nH]2)cc1` [Compound 134, N-((1H-pyrrolo[3,2-c]pyridin-2-yl)methyl)-2-(5-((dibenzo [b,d]furan-2-ylmethyl)amino)-2-(4-(methylsulfonyl)phenyl)-6-oxopyrimidin-1(6H)-yl)-acetamide] the value was less than 100 nM; for `O=C(Cn1c(-c2ccc(C(F)(F)F)cc2)ncc(NCc2ccc3oc4ccccc4c3c2)c1=O)NCc1cc2cnccc2[nH]1` [Compound 135, N-((1H-pyrrolo[3,2-c]pyridin-2-yl)methyl)-2-(5-((dibenzo [b,d]furan-2-ylmethyl)amino)-6-oxo-2-(4-(trifluoromethyl)-phenyl)pyrimidin-1(6H)-yl)-acetamide], less than 100 nM.
As to `O=C(Cn1c(-c2ccc(OC(F)(F)F)cc2)ncc(NCc2ccc3oc4ccccc4c3c2)c1=O)NCc1cc2cnccc2[nH]1` [Compound 136, N-((1H-pyrrolo[3,2-c]pyridin-2-yl)methyl)-2-(5-((dibenzo [b,d]furan-2-ylmethyl)amino)-6-oxo-2-(4-(trifluoromethoxy)-phenyl)pyrimidin-1(6H)-yl)-acetamide], the IC50 was less than 100 nM.
Take `O=C(Cn1c(-c2ccc(OC3COC3)cc2)ncc(NCc2ccc3c(c2)-c2ccccc2C3(F)F)c1=O)NCc1cc2cnccc2[nH]1` [Compound 138, N-((1H-pyrrolo[3,2-c]pyridin-2-yl)methyl)-2-(5-(((9,9-difluoro-9H-fluoren-3-yl)meth-yl)amino)-2-(4-(oxetan-3-yl-oxy)phenyl)-6-oxopyrimidin-1(6H)-yl)acetamide]: the IC50 is less than 100 nM.
`O=C(Cn1c(-c2ccccc2)ncc(NCc2ccc3oc4ccccc4c3c2)c1=O)NCc1cc2cnccc2s1` [Compound 141, 2-(5-((Dibenzo[b,d]furan-2-ylmethyl)amino)-6-oxo-2-phenylpyrimidin-1(6H)-yl)-N-(thieno[3,2-c]pyridin-2-ylmethyl)acetamide]: the IC50 was less than 100 nM.
As to `O=C(Cn1c(-c2ccccc2)ncc(NCc2ccc3oc4ccccc4c3c2)c1=O)NCc1cc2c(s1)CCNC2` [Compound 142, 2-(5-((dibenzo[b,d]furan-2-ylmethyl)amino)-6-oxo-2-phenylpyrimidin-1(6H)-yl)-N-((4,5,6,7-tetrahydrothieno[3,2-c]pyridine-2-yl)methyl)acetamide], the half-maximal inhibitory concentration (IC50) was less than 100 nM.

The values above are taken from US20260184707A1, “PHARMACEUTICAL COMPOUNDS FOR THE TREATMENT OF COMPLEMENT MEDIATED DISORDERS” (ALEXION PHARMACEUTICALS, INC., priority 2022, published 2026).
